Source: the GenesisPotency data set

Key:
[1] = target: T1, Mitogen-activated protein kinase kinase kinase 7/TGF-beta-activated kinase 1 and MAP3K7-binding protein 1, Homo sapiens (UniProt O43318+Q15750)
T1 sequence (whole entry): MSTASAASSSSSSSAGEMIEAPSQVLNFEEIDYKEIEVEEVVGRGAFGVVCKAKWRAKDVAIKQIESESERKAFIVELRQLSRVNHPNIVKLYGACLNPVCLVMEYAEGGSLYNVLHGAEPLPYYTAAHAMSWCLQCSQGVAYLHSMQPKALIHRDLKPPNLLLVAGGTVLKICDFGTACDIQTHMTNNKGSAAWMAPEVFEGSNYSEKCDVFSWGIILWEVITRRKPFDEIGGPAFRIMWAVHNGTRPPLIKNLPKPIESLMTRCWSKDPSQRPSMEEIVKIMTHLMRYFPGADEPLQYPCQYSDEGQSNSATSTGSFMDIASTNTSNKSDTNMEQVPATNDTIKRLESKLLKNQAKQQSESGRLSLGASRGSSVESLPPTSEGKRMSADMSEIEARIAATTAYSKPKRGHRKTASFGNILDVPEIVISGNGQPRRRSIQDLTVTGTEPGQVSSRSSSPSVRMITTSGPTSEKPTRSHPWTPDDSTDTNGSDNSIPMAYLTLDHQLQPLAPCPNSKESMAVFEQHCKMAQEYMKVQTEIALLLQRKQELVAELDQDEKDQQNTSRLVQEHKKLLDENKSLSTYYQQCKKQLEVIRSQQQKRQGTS

[2] = target: Carbonic anhydrase 2, Homo sapiens (UniProt P00918)
[3] = target: T2, Carbonic anhydrase, Pseudomonas aeruginosa (strain ATCC 15692 / DSM 22644 / CIP 104116 / JCM 14847 / LMG 12228 / 1C / PRS 101 / PAO1) (UniProt Q9HVB9)
T2 sequence (whole entry): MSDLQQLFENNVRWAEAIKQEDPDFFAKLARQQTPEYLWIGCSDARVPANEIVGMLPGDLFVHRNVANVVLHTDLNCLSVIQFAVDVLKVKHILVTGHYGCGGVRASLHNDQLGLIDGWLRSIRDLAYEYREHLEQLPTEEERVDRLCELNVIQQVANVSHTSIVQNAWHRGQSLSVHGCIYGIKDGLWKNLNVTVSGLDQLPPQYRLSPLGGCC

[4] = target: T3, Carbonic anhydrase, Methanosarcina thermophila (strain ATCC 43570 / DSM 1825 / OCM 12 / VKM B-1830 / TM-1) (UniProt P40881)
T3 sequence (whole entry): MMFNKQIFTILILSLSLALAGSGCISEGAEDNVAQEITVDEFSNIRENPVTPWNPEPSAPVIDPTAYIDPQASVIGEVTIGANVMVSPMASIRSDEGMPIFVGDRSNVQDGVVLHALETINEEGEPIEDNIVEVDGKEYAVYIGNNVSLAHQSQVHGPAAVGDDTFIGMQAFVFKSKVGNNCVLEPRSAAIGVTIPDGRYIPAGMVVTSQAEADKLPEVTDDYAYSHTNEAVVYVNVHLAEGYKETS

[5] = target: Delta-type opioid receptor, Mus musculus (UniProt P32300)
[6] = target: Inositol hexakisphosphate kinase 1, Homo sapiens (UniProt Q92551)
[7] = target: Carbonic anhydrase 2, Homo sapiens (UniProt P00918); remark: listed apart in the source
[8] = target: T4, Muscarinic acetylcholine receptor M5, Homo sapiens (UniProt P08912)
T4 sequence (whole entry): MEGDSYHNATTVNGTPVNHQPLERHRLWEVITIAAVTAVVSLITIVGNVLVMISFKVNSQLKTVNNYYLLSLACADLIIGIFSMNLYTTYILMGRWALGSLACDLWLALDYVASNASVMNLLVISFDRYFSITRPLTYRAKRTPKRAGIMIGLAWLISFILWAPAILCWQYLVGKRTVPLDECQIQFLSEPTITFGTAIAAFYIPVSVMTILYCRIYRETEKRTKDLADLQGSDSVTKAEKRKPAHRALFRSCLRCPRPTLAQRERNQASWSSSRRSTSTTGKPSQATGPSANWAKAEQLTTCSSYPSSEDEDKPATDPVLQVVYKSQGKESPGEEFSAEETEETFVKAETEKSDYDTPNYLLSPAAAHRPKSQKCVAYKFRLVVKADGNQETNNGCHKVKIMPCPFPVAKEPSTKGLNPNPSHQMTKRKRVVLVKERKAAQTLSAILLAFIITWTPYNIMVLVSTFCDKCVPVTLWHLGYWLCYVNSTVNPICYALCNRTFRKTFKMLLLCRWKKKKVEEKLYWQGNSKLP

[9] = target: T5, Glycylpeptide N-tetradecanoyltransferase, Trypanosoma brucei brucei (strain 927/4 GUTat10.1) (UniProt Q388H8)
T5 sequence (whole entry): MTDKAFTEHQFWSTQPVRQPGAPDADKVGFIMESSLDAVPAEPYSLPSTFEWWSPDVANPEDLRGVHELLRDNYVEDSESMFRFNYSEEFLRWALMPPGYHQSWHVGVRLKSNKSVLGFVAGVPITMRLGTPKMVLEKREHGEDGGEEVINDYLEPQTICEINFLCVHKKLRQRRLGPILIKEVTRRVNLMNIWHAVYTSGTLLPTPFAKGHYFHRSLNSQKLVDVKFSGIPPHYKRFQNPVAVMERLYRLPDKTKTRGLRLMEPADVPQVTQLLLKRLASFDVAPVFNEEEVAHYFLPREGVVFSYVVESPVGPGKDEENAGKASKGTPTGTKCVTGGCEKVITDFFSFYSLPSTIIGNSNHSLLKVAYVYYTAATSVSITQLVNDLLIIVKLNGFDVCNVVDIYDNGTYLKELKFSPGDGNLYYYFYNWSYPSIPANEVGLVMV

Sequence of Delta-type opioid receptor, Mus musculus (P32300 whole entry): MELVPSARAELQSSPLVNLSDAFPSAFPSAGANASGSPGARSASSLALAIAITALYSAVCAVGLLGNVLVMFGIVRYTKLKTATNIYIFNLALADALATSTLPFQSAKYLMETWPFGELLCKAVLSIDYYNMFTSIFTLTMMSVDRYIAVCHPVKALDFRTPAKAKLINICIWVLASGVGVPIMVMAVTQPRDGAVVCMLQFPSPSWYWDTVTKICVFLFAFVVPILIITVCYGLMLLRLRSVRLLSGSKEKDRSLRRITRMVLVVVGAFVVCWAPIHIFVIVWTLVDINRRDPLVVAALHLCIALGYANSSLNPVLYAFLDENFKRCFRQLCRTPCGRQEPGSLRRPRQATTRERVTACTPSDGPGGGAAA
Sequence of Inositol hexakisphosphate kinase 1, Homo sapiens (Q92551 whole entry, looked up): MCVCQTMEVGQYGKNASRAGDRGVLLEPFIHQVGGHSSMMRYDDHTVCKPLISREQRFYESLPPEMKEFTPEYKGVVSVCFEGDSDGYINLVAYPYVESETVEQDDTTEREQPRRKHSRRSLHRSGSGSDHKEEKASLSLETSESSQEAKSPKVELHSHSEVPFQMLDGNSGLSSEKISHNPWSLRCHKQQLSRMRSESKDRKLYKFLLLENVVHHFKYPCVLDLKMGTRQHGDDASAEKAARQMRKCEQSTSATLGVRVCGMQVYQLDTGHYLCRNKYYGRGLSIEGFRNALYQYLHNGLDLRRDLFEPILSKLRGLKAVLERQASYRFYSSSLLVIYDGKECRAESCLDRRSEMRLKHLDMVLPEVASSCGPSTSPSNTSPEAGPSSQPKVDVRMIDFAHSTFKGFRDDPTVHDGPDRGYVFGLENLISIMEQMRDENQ

## O=C1CSC(/N=N/c2c(O)[nH]c3ccccc23)=N1
[1]
  IC50: > 5 µM

## C=CC(=O)Nc1ccc(Cn2nc(-c3ccc4[nH]c(C)nc4c3)c3c(N)ncnc32)cc1
[2]
  Ki: > 200000 µM
[3]
  Ki: > 100000 µM
[4]
  Ki: > 200000 µM

## COc1cc2c(c(OC)c1OC)-c1cc3c(cc1C(=O)[C@@H]1COC(=O)[C@H]1C2)OCO3
[5]
  IC50: > 10 µM

## O=[N+](O)c1ccc(CNc2nc(NCc3cccc(C(F)(F)F)c3)nc3[nH]cnc23)cc1
[6]
  IC50: < 200 µM

## CC(C)[C@H]1NC(=O)[C@@H](C)[C@@H](CC=CCCC(N)=O)NC(=O)[C@@H](Cc2ccc(O)cc2)NC(=O)[C@@H](C)NC1=O
[7]
  Ki: > 10 µM

## O=c1c(OC2C(O)OC(CO)C(O)C2O)c(-c2ccc(O)c(O)c2)oc2cc(O)cc(O)c12 (stereo not given)
[8]
  Ki: > 10 µM

## Cc1nn(C)c(C)c1N[SH+]([O-])c1c(Cl)cc(-c2ccc(OC(F)(F)F)cc2)cc1-c1ccc(OC(F)(F)F)cc1 (stereo not given)
[9]
  IC50: > 100 µM

## CC(C)[C@H]1NC(=O)[C@@H](C)[C@@H](CC=CCCC(=O)O)NC(=O)[C@@H](Cc2ccc(O)cc2)NC(=O)[C@@H](C)NC1=O
[7]
  Ki: > 10 µM
